Experimental data: patent US4451448A, “1-Substituted tricyclic quinazolinones useful as tranquilizers” (Sandoz, Inc., priority 1982, dated 1984)

System: isolated calf brain benzodiazepine receptors
Experiment: Flunitrazepam Receptor Binding Assay (FBA TEST No. 1), displacement of 3H-flunitrazepam
Conditions: compound at final concentration of 1×10^-6 M; calf caudate tissue; 1 µM

| Structure (SMILES) | percent specifically bound 3H-flunitrazepam compared to control |
| --- | --- |
| C=CCN1CCn2c1nc1ccc(Cl)cc1c2=O [Example 1, 1-allyl-7-chloro-2,3-dihydro-imidazo[2,1-b]quinazolin-5(1H)-one] | 13 % of control |
| O=c1c2cc(Cl)ccc2nc2n1CCN2C1CCCC1 [Example 2, 7-chloro-1-cyclopentyl-2,3-dihydro-imidazo[2,1-b]quinazolin-5(1H)-one] | 19 % of control |
